39 compounds from patent US20250313535A1, “ALPHA 4 BETA 7 INTEGRIN MODULATORS AND USES THEREOF” (DICE MOLECULES SV, INC., priority 2022, published 2025) can be followed below.

Read-outs that look alike come from different tables or passages of the source.

The target in one test is α4β7 integrin (Homo sapiens (Human), UniProt P13612+P26010). As to the kind of experiment: Integrin Adhesion Assay: Protocol 4 (MAdCAM-coated plate, RPMI-8866 cells with stable LOF mutation of the ITGB1 gene). It is filed as cell-based. The method, boiled down:
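RPMI-8866 cells with CRISPR/Cas9 knockout of ITGB1 (2×10^6/mL) were added to MAdCAM-coated wells with compound (1% DMSO) in HEPES/NaCl buffer with 1 mM MnCl2, 0.1 mM CaCl2 and 1% BSA, then incubated 1 h at 37 °C. After four washes, adherent cells were quantified by CellTiter-Glo luminescence. Percent inhibition versus DMSO and control compound was fitted to 4-parameter curves.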

A further test deals with α4β1 integrin (Homo sapiens (Human), UniProt P05556+P13612). As to the kind of experiment: Integrin Adhesion Assay: Protocol 5 (VCAM-coated plate, RPMI-8866 cells with stable LOF mutation of the ITGB7 gene). The test is classed as cell-based. The method, boiled down:
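RPMI-8866 B cells with CRISPR/Cas9 ITGB7 knockout (clonal, verified by flow cytometry) adhered to VCAM-coated wells for 1 h at 37° C in HEPES/NaCl buffer with 1 mM MnCl2, 0.1 mM CaCl2, 1% BSA, 1% DMSO. Bound cells quantified by CellTiter-Glo luminescence after washing; % inhibition versus DMSO and control, 4-parameter fit.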

[1] abbreviates: RPMI-8866 cells with stable LOF mutation of the ITGB1 gene, read-out: Mean IC50 α4β7 KO^a.
The mark [2] stands for this setting: RPMI-8866 cells with stable LOF mutation of the ITGB7 gene, read-out: Mean IC50 α4β1 KO^b.
The mark [3] stands for this setting: Protocol 4, RPMI-8866 cells with LOF mutation of ITGB1, MAdCAM, read-out: Mean IC50 α4β7 KO.
[4] abbreviates: Protocol 5, RPMI-8866 cells with LOF mutation of ITGB7, VCAM, read-out: Mean IC50 α4β1 KO.

Sequence of α4β7 integrin (P13612 34-1032): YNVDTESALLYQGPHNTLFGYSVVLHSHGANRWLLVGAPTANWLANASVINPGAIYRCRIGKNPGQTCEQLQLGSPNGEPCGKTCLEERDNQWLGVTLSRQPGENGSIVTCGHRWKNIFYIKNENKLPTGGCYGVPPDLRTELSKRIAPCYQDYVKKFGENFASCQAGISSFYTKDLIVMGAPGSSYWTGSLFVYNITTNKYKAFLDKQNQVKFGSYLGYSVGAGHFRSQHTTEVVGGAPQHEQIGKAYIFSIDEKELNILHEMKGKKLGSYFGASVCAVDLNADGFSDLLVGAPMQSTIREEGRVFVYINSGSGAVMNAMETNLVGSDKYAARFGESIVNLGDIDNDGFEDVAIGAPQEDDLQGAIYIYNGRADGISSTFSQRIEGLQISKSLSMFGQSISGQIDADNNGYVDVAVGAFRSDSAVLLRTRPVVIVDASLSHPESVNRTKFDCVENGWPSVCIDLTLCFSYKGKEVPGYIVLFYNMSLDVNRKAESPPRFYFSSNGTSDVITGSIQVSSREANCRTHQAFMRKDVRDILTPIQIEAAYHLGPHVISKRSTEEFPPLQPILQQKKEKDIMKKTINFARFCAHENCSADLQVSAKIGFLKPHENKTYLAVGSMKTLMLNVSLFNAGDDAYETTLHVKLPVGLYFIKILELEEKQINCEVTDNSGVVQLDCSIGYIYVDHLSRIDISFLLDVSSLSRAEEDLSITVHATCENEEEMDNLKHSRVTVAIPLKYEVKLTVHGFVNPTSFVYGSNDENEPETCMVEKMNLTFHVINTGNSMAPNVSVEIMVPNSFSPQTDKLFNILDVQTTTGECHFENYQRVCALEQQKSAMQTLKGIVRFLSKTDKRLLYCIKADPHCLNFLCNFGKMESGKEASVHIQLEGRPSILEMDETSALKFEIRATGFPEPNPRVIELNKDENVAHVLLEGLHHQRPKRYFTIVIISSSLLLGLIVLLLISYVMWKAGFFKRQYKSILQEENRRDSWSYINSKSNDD
Sequence of α4β7 integrin (P26010 20-798): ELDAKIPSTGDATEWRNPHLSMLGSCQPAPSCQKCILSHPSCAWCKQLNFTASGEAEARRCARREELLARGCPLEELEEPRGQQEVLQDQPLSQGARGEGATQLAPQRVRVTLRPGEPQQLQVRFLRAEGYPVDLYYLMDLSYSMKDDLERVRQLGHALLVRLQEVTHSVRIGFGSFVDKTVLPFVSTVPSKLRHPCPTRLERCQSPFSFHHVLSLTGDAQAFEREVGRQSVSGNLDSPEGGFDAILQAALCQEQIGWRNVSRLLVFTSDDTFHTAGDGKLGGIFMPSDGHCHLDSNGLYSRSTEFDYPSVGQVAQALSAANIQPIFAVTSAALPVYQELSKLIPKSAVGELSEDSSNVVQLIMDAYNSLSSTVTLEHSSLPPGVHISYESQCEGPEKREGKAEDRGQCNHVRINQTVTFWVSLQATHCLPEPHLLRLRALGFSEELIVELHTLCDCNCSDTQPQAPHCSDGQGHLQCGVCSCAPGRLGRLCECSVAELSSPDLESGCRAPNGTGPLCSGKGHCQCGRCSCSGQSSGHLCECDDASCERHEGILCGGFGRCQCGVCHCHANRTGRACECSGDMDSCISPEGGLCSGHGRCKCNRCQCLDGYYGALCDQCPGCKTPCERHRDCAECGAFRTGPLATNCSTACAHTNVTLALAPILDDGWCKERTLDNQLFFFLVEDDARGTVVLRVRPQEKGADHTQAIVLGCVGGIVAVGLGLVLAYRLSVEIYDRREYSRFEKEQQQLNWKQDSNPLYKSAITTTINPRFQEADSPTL
Sequence of α4β1 integrin (P13612 34-1032): as the sequence (P13612 34-1032) above
Sequence of α4β1 integrin (P05556 21-798): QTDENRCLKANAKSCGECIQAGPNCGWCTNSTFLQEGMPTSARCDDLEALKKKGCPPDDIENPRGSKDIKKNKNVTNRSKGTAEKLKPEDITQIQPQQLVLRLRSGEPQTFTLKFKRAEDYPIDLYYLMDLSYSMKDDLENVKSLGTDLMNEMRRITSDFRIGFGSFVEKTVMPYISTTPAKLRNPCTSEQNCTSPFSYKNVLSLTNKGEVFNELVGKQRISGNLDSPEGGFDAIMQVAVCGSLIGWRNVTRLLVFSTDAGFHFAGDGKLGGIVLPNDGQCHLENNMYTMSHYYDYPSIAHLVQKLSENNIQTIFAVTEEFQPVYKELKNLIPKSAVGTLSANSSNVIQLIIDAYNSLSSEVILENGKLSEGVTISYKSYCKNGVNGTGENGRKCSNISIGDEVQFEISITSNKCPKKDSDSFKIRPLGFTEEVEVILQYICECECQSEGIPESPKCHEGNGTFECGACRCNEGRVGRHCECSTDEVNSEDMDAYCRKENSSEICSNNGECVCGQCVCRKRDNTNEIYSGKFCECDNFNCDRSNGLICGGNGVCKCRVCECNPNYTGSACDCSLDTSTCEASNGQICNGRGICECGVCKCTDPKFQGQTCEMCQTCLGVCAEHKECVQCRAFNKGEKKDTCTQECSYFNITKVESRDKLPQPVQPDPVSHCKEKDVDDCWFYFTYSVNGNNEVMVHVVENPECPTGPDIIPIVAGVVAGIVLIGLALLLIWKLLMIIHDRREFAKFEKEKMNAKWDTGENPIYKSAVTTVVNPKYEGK

Regarding `CCN(CC)Cc1ccc(OC)c(-c2cccc3c(C[C@H](NC(=O)c4c(C)cccc4F)C(=O)O)cccc23)c1OC` [Compound 622], the IC50 was below 10 nM on α4β7 integrin (setting [1]) and 100 to 1000 nM on α4β1 integrin (setting [2]).
With `CN1CCc2cc(-c3cccc4c(C[C@H](NC(=O)C5(C(F)(F)F)CCN(CC(F)(F)F)CC5)C(=O)O)cccc34)ncc2C1` [Compound 754], the IC50 at α4β7 integrin (setting [3]) was 10 to 100 nM; at α4β1 integrin (setting [4]), above 1000 nM.
Regarding `Cn1c(=O)c(-c2cccc3c(C[C@H](NC(=O)c4c(F)cccc4F)C(=O)O)cccc23)c(C(F)(F)F)c2cc(CCN3CCCC3)ccc21` [Compound 710], the half-maximal inhibitory concentration (IC50) at α4β7 integrin (setting [3]) was below 10 nM; on α4β1 integrin (setting [4]), 100 to 1000 nM.
For `Cn1c(=O)c(-c2cccc3c(C[C@H](NC(=O)C4(C(F)(F)F)CCN(CC#N)CC4)C(=O)O)cccc23)c(C(F)(F)F)c2ccccc21` [Compound 538], the figures for the IC50 on α4β7 integrin (setting [1]) and on α4β1 integrin (setting [2]) were 10 to 100 nM and above 1000 nM, respectively.
The corresponding values for `COc1cccc(CN2CCCCC2)c1-c1cccc2c(C[C@H](NC(=O)c3c(C)cc(C4CC(F)(F)C4)cc3F)C(=O)O)cccc12` [Compound 544] are below 10 nM and 100 to 1000 nM.
Turning to `COc1cc(CN2CCCC2)cc(OC)c1-c1cccc2c(C[C@H](NC(=O)C3(C(F)(F)F)CCN(CC(F)(F)F)CC3)C(=O)O)cccc12` [Compound 796], the half-maximal inhibitory concentration (IC50) was below 10 nM on α4β7 integrin (setting [3]) and 100 to 1000 nM at α4β1 integrin (setting [4]).
Regarding `CCCS(=O)(=O)Nc1ccc(F)c(C(=O)N[C@@H](Cc2cccc3c(-c4c(C(F)(F)F)c5ccccc5n(C)c4=O)cccc23)C(=O)O)c1F` [Compound 496], the IC50 at α4β7 integrin (setting [1]) was 10 to 100 nM; on α4β1 integrin (setting [2]), above 1000 nM.
`CC1CCN(Cc2cnc(-c3cccc4c(C[C@H](NC(=O)C5(C(F)(F)F)CCN(CC(F)(F)F)CC5)C(=O)O)cccc34)c3ccccc23)CCC1(F)F` (stereo partly drawn) [Compound 875]: the IC50 on α4β7 integrin (setting [3]) is 10 to 100 nM; at α4β1 integrin (setting [4]) it was above 1000 nM.
For the compound `CC1(C)CCN(Cc2cccc3c(-c4cccc5c(C[C@H](NC(=O)C6(C(F)(F)F)CCN(CC(F)(F)F)CC6)C(=O)O)cccc45)nccc23)CC1` [Compound 561], the values for the IC50 at α4β7 integrin (setting [1]) and on α4β1 integrin (setting [2]) were below 10 nM and above 1000 nM, respectively.
In the case of `CN(C)Cc1ccc2c(c1)c(C(F)(F)F)c(-c1cccc3c(C[C@H](NC(=O)c4c(F)cccc4CN4CCC(F)(F)CC4)C(=O)O)cccc13)c(=O)n2C` [Compound 701], the 50% inhibitory concentration (IC50) on α4β7 integrin (setting [3]) is 10 to 100 nM; on α4β1 integrin (setting [4]), above 1000 nM.
The corresponding values for `Cn1c(=O)c(-c2cccc3c(C[C@H](NC(=O)C4(C(F)(F)F)CCN(CC(F)(F)F)CC4)C(=O)O)cccc23)c(C(F)(F)F)c2cc(CN3CCC(F)(F)CC3)ccc21` [Compound 835] are 10 to 100 nM and 100 to 1000 nM.
With `COc1cccc(CCN2CCC[C@H](F)C2)c1-c1cccc2c(C[C@H](NC(=O)c3c(C)cccc3F)C(=O)O)cccc12` [Compound 1037], the IC50 on α4β7 integrin (setting [3]) was below 10 nM; on α4β1 integrin (setting [4]) it was above 1000 nM.
Regarding `COc1ccc2c(c1-c1cccc3c(C[C@H](NC(=O)C4(C(F)(F)F)CCN(CC(F)(F)F)CC4)C(=O)O)cccc13)CN(CC(F)(F)F)CC2` [Compound 750], the IC50 at α4β7 integrin (setting [3]) was 10 to 100 nM; at α4β1 integrin (setting [4]), above 1000 nM.
The corresponding values for `COc1ccc(CN2CCOCC2)c(OC)c1-c1cccc2c(C[C@H](NC(=O)C3(C(F)(F)F)CCN(CC(F)(F)F)CC3)C(=O)O)cccc12` [Compound 785] are 10 to 100 nM and 100 to 1000 nM.
As to `COc1ccc(CN2CCCCC2)c(OC)c1-c1cccc2c(C[C@H](NC(=O)c3c(C)cccc3F)C(=O)O)cccc12` [Compound 621], the IC50 on α4β7 integrin (setting [1]) is below 10 nM; on α4β1 integrin (setting [2]) it was 100 to 1000 nM.
As to `Cc1cccc(F)c1C(=O)N[C@@H](Cc1cccc2c(-c3c(C(F)(F)F)c4cc(CN5CCCCC5)ccc4n(C)c3=O)cccc12)C(=O)O` [Compound 1030], the figures for the IC50 at α4β7 integrin (setting [3]) and at α4β1 integrin (setting [4]) were below 10 nM and 100 to 1000 nM, respectively.
The corresponding values for `COC1CN(Cc2cnc(-c3cccc4c(C[C@H](NC(=O)C5(C(F)(F)F)CCN(CC(F)(F)F)CC5)C(=O)O)cccc34)c3ccccc23)C1` [Compound 866] are below 10 nM and above 1000 nM.
As to `O=C(O)[C@H](Cc1cccc2c(-c3ncc(CN4CC5CC(C5)C4)c4ccccc34)cccc12)NC(=O)C1(C(F)(F)F)CCN(CC(F)(F)F)CC1` [Compound 885], the IC50 at α4β7 integrin (setting [3]) was below 10 nM; at α4β1 integrin (setting [4]) it was above 1000 nM.
With `COc1cccc(CN2CC3CCC(C2)O3)c1-c1cccc2c(C[C@H](NC(=O)c3c(C)cccc3F)C(=O)O)cccc12` [Compound 1028], the 50% inhibitory concentration (IC50) on α4β7 integrin (setting [3]) was 10 to 100 nM; at α4β1 integrin (setting [4]), above 1000 nM.
Turning to `COc1cc2c(c(OC)c1-c1cccc3c(C[C@H](NC(=O)C4(C(F)(F)F)CCN(CC(F)(F)F)CC4)C(=O)O)cccc13)CN(C)CC2` [Compound 474], the 50% inhibitory concentration (IC50) at α4β7 integrin (setting [1]) is below 10 nM; on α4β1 integrin (setting [2]) it was 100 to 1000 nM.
On to `Cn1c(=O)c(-c2cccc3c(C[C@H](NC(=O)C4(C(F)(F)F)CCN(C5COCC5(F)F)CC4)C(=O)O)cccc23)c(C(F)(F)F)c2ccccc21` (stereo partly drawn) [Compound 512], for which the results for the IC50 on α4β7 integrin (setting [1]) and on α4β1 integrin (setting [2]) were below 10 nM and 100 to 1000 nM, respectively.
The corresponding values for `COc1cccc(CCCN(C)C)c1-c1cccc2c(C[C@H](NC(=O)C3(C(F)(F)F)CCN(CC(F)(F)F)CC3)C(=O)O)cccc12` [Compound 567] are below 10 nM and 100 to 1000 nM.
On to `CCOCc1cc(OC)c(-c2cccc3c(C[C@H](NC(=O)C4(C(F)(F)F)CCN(CC(F)(F)F)CC4)C(=O)O)cccc23)cc1CN1CCCCC1` [Compound 768], for which the half-maximal inhibitory concentration (IC50) is below 10 nM at α4β7 integrin (setting [3]) and 100 to 1000 nM on α4β1 integrin (setting [4]).
The corresponding values for `COc1ccc(CN2CC3C(C2)C3(C)C)c(OC)c1-c1cccc2c(C[C@H](NC(=O)C3(C(F)(F)F)CCN(CC(F)(F)F)CC3)C(=O)O)cccc12` (stereo partly drawn) [Compound 817] are below 10 nM and 100 to 1000 nM.
The corresponding values for `COc1cccc(CCN2CCC(F)(F)CC2)c1-c1cccc2c(C[C@H](NC(=O)c3c(C)cccc3F)C(=O)O)cccc12` [Compound 1034] are 10 to 100 nM and above 1000 nM.
`COc1c2c(cc(C)c1-c1cccc3c(C[C@H](NC(=O)C4(C(F)(F)F)CCN(CC(F)(F)F)CC4)C(=O)O)cccc13)CCN(C)C2` [Compound 735]: the figures for the IC50 at α4β7 integrin (setting [3]) and on α4β1 integrin (setting [4]) were below 10 nM and above 1000 nM, respectively.
For `COc1ccc(CN2CCC(F)CC2)c(C(F)(F)F)c1-c1cccc2c(C[C@H](NC(=O)c3c(C)cccc3F)C(=O)O)cccc12` [Compound 574], the results for the IC50 on α4β7 integrin (setting [1]) and at α4β1 integrin (setting [2]) were 10 to 100 nM and above 1000 nM, respectively.
On to `O=C(O)[C@H](Cc1cccc2c(-c3ncc(CCN4CCC[C@H](F)C4)c4ccccc34)cccc12)NC(=O)C1(C(F)(F)F)CCN(CC(F)(F)F)CC1` [Compound 978], for which the IC50 was below 10 nM at α4β7 integrin (setting [3]) and above 1000 nM at α4β1 integrin (setting [4]).
The corresponding values for `C[C@@H]1CN(Cc2cnc(-c3cccc4c(C[C@H](NC(=O)C5(C(F)(F)F)CCN(CC(F)(F)F)CC5)C(=O)O)cccc34)c3ccccc23)C[C@H](C)N1C1CC1` [Compound 892] are below 10 nM and 100 to 1000 nM.
As for `COc1cccc(CN2CCC(F)CC2)c1-c1cccc2c(C[C@H](NC(=O)C3(C(F)(F)F)CCN(CC(F)(F)F)CC3)C(=O)O)cccc12` [Compound 827], the IC50 on α4β7 integrin (setting [3]) is 10 to 100 nM; at α4β1 integrin (setting [4]) it was above 1000 nM.
The matching figures for `COc1ccc(CN2CCCCC2)c(OC)c1-c1cccc2c(C[C@H](NC(=O)C3(C(F)(F)F)CCN(CC(F)(F)F)CC3)C(=O)O)cccc12` [Compound 784]: below 10 nM and 100 to 1000 nM.
As to `COc1ccc(CN2CCCCC2)c(C(F)(F)F)c1-c1cccc2c(C[C@H](NC(=O)c3c(C)cccc3F)C(=O)O)cccc12` [Compound 562], the IC50 on α4β7 integrin (setting [1]) is below 10 nM; on α4β1 integrin (setting [2]), 100 to 1000 nM.
As to `O=C(O)[C@H](Cc1cccc2c(-c3ncc(CN4CCOCC45CC5)c4ccccc34)cccc12)NC(=O)C1(C(F)(F)F)CCN(CC(F)(F)F)CC1` [Compound 870], the results for the IC50 at α4β7 integrin (setting [3]) and on α4β1 integrin (setting [4]) were below 10 nM and above 1000 nM, respectively.
Regarding `COc1cccc(CCN2CCC(F)CC2)c1-c1cccc2c(C[C@H](NC(=O)C3(C(F)(F)F)CCN(CC(F)(F)F)CC3)C(=O)O)cccc12` [Compound 968], the IC50 on α4β7 integrin (setting [3]) was below 10 nM; at α4β1 integrin (setting [4]), 100 to 1000 nM.
Consider `COc1cncc(OC)c1-c1cccc2c(C[C@H](NC(=O)c3c(C)cccc3F)C(=O)O)cccc12` [Compound 477], for which the IC50 at α4β7 integrin (setting [1]) is below 10 nM; at α4β1 integrin (setting [2]), 100 to 1000 nM.
Regarding `Cc1cccc(F)c1C(=O)N[C@@H](Cc1cccc2c(-c3ncccc3CN3CCCCC3)cccc12)C(=O)O` [Compound 1021], the IC50 at α4β7 integrin (setting [3]) is 10 to 100 nM; on α4β1 integrin (setting [4]), above 1000 nM.
Take `Cn1c(=O)c(-c2cccc3c(C[C@H](NC(=O)c4c(F)cccc4F)C(=O)O)cccc23)c(C(F)(F)F)c2cc(C3CCCO3)ccc21` (stereo partly drawn) [Compound 1046]: the IC50 at α4β7 integrin (setting [3]) is 100 to 1000 nM; at α4β1 integrin (setting [4]), above 1000 nM.
On to `COc1c(-c2cccc3c(C[C@H](NC(=O)C4(C(F)(F)F)CCN(CC(F)(F)F)CC4)C(=O)O)cccc23)c(=O)n(C)c2ccccc12` [Compound 739], for which the IC50 is 10 to 100 nM on α4β7 integrin (setting [3]) and above 1000 nM at α4β1 integrin (setting [4]).
The matching figures for `O=C(O)[C@H](Cc1cccc2c(-c3nccc4cccc(CN5CCCCC5)c34)cccc12)NC(=O)C1(C(F)(F)F)CCN(CC(F)(F)F)CC1` [Compound 864]: below 10 nM and above 1000 nM.
